According to patent publication US5869492A, “Condensed thiazole derivatives, having 5-HT receptor affinity” (priority 1995, dated 1999):
Where a name gives a salt, the structure may show the parent alone. Read-outs that look alike come from different tables or passages of the source.

Key:
[1] = target: T1, noradrenaline reuptake sites (Rattus norvegicus, UniProt Q63380); test: [3H]noradrenaline uptake into rat frontal cortical synaptosomes; assay type: biochemical; conditions: [3H]noradrenaline 10 nM, mean of three determinations unless marked (** one), read-out: NA uptake Ki
T1 construct: Frontal cortical tissue from the brains of male Sprague-Dawley rats; from tissue; host or cells: crude frontal cortical synaptosomes of male Sprague-Dawley rats (Charles River)
T1 sequence (Q63380 1-617): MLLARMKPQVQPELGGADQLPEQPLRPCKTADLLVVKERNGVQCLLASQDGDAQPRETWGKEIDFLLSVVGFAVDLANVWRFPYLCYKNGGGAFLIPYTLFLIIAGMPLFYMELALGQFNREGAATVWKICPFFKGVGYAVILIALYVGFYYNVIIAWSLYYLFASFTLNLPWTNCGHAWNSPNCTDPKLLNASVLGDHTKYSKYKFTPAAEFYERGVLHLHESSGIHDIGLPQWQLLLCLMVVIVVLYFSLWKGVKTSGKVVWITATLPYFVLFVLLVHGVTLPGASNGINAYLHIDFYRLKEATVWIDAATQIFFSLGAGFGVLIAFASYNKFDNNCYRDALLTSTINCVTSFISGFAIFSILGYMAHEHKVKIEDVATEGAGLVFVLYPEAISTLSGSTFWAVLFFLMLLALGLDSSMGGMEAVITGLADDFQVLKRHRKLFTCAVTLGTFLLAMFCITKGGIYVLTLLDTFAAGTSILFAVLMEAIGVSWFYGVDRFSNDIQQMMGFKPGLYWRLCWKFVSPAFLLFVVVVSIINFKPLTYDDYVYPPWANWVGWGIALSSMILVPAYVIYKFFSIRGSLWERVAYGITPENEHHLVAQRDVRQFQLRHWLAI
Procedure: Frontal cortical tissue from the brains of male Sprague-Dawley rats (Charles River; weight range 150-250 g) was homogenised in ice-cold 0.32M sucrose (1:10 w/v) using a motor driven teflon pestle (difference in diameter between mortar and pestle 0.5 mm). Nuclei and cell debris were removed by centrifugation at 1,500 g at 4° C. for 10 minutes. The pellet (P1) was discarded and the supernatant centrifuged at 30,000 g at 4° C. for 10 minutes. The crude synaptosomal pellet (P2) was resuspended in Krebs-Physiological buffer (equivalent to 16.7 mg wet weight of tissue/ml).
Crude synaptosomes were incubated in a shaking water bath at 37° C. for 15 minutes. Aliquots (150 μl; equivalent to 2.5 mg wet weight of tissue/tube) were then added to tubes containing 275 μl of Krebs-Physiological buffer and 50 μl of Krebs-Physiological buffer (total uptake) or 50 μl of test compound (at a single concentration of 10^-6 M or 10 concentrations ranging from 10^-11 -10^-3 M) or 50 μl of desipramine (10^-5 M; non-specific uptake). Uptake was initiated by the addition of 25 μl of freshly prepared [^3 H]noradrenaline (10 nM), followed by vortexing and was continued for 5 minutes at 37° C. in the shaking water bath. Uptake was terminated by filtration under vacuum through Whatman GF/B filters using a Brandell cell harvester. Filters were then washed with 8 ml ice-cold saline. The scored filter paper discs were placed into vials, scintillation fluid added and radioactivity determined by liquid scintillation counting.

5-HT1A receptors = target: T2, 5-HT1A receptors (Rattus norvegicus, UniProt P19327); test: [3H]8-OH-DPAT binding to 5-HT1A receptors in rat hippocampal membranes; conditions: for Ki: [3H]8-OH-DPAT 2 nM, rat hippocampal membranes, mean of three determinations unless marked
T2 construct: Hippocampal tissue from the brains of male Sprague-Dawley rats; from tissue; host or cells: hippocampal membranes of male Sprague-Dawley rats (Charles River)
T2 sequence (P19327 1-422): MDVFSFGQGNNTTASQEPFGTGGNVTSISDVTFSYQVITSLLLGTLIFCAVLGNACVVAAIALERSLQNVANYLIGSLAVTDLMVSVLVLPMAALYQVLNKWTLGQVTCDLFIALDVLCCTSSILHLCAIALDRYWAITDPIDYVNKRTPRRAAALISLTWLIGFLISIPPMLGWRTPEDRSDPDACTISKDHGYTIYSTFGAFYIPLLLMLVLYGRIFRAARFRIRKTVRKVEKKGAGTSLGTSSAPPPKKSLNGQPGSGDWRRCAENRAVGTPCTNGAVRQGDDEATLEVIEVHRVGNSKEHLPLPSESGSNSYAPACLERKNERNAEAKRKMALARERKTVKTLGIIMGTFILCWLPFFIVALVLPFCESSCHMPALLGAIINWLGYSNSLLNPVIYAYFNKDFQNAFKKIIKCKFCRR
Procedure: Hippocampal tissue from the brains of male Sprague-Dawley rats (Charles River; weight range 150-250 g) was homogenised in ice-cold 50 mM Tris-HCl buffer (pH 7.7 when measured at 25° C., 1:40 w/v) and centrifuged at 30,000 g at 4° C. for 10 minutes. The pellet was rehomogenised in the same buffer, incubated at 37° C. for 10 minutes and centrifuged at 30,000 g at 4° C. for 10 minutes. The final pellet was resuspended in 50 mM Tris-HCI buffer (pH 7.7) containing 4 mM CaCl2, 0.1% L-ascorbic acid and 10 μM pargyline hydrochloride (equivalent to 6.25 mg wet weight of tissue/ml) and used immediately in the binding assay.
Aliquots (400 μl; equivalent to 2.5 mg wet weight of tissue/tube) of this membrane preparation were added to tubes containing [^3 H]8-hydroxy-2-(dipropylamino)tetralin ([^3 H]8-OH-DPAT; 50 μl; 2 nM) and distilled water (50 μl; total binding) or 5-HT (50 μl; 10 μM; non-specific binding) or test compound (50 μl; at a single concentration of 10^-6 M or at 10 concentrations ranging from 10^-11 -10^-3 M) and incubated at 25° C. for 30 minutes. The incubation was terminated by rapid filtration under vacuum through Skatron 11734 filters using a Skatron Cell Harvester. Filters were washed with ice-cold 50 mM Tris-HCl buffer, pH 7.7 (at 25° C., wash setting 9,9,0) and dried. The scored filter paper discs were punched out into vials, scintillation fluid added and radioactivity determined by liquid scintillation counting.
The percentage displacement of specific binding of the tritiated ligand was calculated for the single concentration (10^-6 M) of test compound. Displacement curves were then produced for those compounds which displaced ≥50% of specific binding of the tritiated ligand at 10^-6 M using a range of concentrations of the compound. The concentration which gave 50% inhibition of specific binding (IC50) was obtained from the curve. The inhibition coefficient Ki was then calculated using the formula [formula] in which [ligand] is the concentration of the tritiated ligand used and KD is the equilibrium dissociation constant for the ligand.

[2] = target: T3, 5-hydroxytryptamine (5-HT) reuptake sites (Rattus norvegicus, UniProt P31652); test: [3H]5-HT uptake into rat frontal cortical synaptosomes; assay type: biochemical
T3 construct: Frontal cortical tissue from the brains of male Sprague-Dawley rats; from tissue; host or cells: crude frontal cortical synaptosomes of male Sprague-Dawley rats (Charles River)
T3 sequence (P31652 whole entry): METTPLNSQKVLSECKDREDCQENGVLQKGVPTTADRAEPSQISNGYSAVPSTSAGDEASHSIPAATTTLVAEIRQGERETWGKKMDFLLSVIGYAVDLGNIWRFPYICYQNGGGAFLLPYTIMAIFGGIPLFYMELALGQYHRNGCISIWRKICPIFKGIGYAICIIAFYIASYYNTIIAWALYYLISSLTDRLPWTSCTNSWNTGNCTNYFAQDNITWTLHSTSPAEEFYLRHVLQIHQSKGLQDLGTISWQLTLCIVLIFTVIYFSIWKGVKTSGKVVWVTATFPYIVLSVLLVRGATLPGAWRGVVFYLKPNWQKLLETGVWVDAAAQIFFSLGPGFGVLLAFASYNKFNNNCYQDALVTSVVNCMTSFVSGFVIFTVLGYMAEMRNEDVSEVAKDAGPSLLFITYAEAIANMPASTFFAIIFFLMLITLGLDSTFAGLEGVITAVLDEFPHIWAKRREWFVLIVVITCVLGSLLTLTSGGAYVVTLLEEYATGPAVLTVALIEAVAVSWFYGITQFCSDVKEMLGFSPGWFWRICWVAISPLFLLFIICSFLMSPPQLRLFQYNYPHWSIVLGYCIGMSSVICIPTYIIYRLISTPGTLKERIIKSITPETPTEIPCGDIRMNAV
Procedure: Frontal cortical tissue from the brains of male Sprague-Dawley rats (Charles River; weight range 150-250 g) was homogenised in ice-cold 0.32M sucrose (1:10 w/v) using a motor driven teflon pestle (difference in diameter between mortar and pestle 0.5 mm). Nuclei and cell debris were removed by centrifugation at 1,500 g at 4° C. for 10 minutes. The pellet (P1) was discarded and the supernatant centrifuged at 30,000 g at 4° C. for 10 minutes. The crude synaptosomal pellet (P2) was resuspended in Krebs-Henseleit buffer (equivalent to 8.3 mg wet weight of tissue/ml).
Crude synaptosomes were incubated in a shaking water bath at 37° C. for 15 minutes. Aliquots (150 μl; equivalent to 1.25 mg wet weight of tissue/tube) were then added to tubes containing 275 μl of Krebs-Henseleit buffer and 50 μl of Krebs-Henseleit buffer (total uptake) or 50 μl of test compound (at a single concentration of 10^-6 M or at 10 concentrations ranging from 10^-11 -10^-3 M) or 50 μl of zimeldine (10^-5 M; non-specific uptake). Uptake was initiated by the addition of 25 μl of freshly prepared [^3 H]5-HT (2 nM), followed by vortexing, and was continued for 5 minutes at 37° C. in the shaking water bath. Uptake was terminated by filtration under vacuum through Skatron 11734 filters using a Skatron cell harvester. Filters were then washed with 8 ml ice-cold saline. The scored filter paper discs were punched into vials, scintillation fluid added and radioactivity determined by liquid scintillation counting.
For both the 5-HT uptake and noradrenaline uptake tests, the percentage inhibition of specific uptake of the tritiated ligand was calculated for the single concentration (10^-6 M) of test compound. Inhibition curves were then produced for those compounds which inhibited ≥50% of specific uptake of the tritiated ligand at 10 ^-6 M using a range of concentrations of test compound. The concentration which gave 50% inhibition of specific uptake (IC50) was obtained from the curve. The inhibition constant (Ki) was then calculated using the formula [formula] in which [ligand] is the concentration of tritiated ligand used and Km is the affinity of the uptake site for the ligand.

[3] = [3H]5-HT 2 nM, rat frontal cortical synaptosomes, mean of three determinations unless marked (* two), read-out: 5-HT uptake Ki

SMILES	Ki [1] [nM]	Ki (5-HT1A receptors) [nM]	Ki [2] [nM]	Ki [2, 3] [nM]	inhibition at 1 µM (5-HT1A receptors; single concentration 10^-6 M, [3H]8-OH-DPAT, * mean of two determinations, read-out: 5-HT1A % displacement at 10^-6 M) [%]
C1=C(c2csc3ccccc23)N2CCN=C2S1 [Example 1, 3-(benzo[b]thiophen-3-yl)-5,6-dihydroimidazo[2,1-b]thiazole monohydrobromide dihydrate]	2.8	81	12.7	–	–
C1=C(c2csc3ccccc23)N2CCCN=C2S1 [Example 2, 3-(benzo[b]thiophen-3-yl)-6,7-dihydro-5H-thiazolo[3,2-2a]pyrimidine]	40	340	–	305	–
C1=C(c2coc3ccccc23)N2CCN=C2S1 [Example 3, 3-(benzo[b]furan-3-yl)-5,6-dihydroimidazo[2,1-b]thiazole monohydrobromide monohydrate]	41	118	84	–	–
C1=C(c2coc3ccccc23)N2CCCN=C2S1 [Example 4, 3-(benzo[b]furan-3-yl)-6,7-dihydro-5H-thiazolo[3,2-a]pyrimidine]	116	321	–	881	–
Clc1ccc2scc(C3=CSC4=NCCN34)c2c1 [Example 5, 3-(5-chlorobenzo[b]thiophen-3-yl)-5,6-dihydroimidazo[2,1-b]thiazole monohydrobromide]	13	40.7	8.7	–	–
COc1ccc2scc(C3=CSC4=NCCN34)c2c1 [Example 6, 3-(5-methoxybenzo[b]thiophen-3-yl)-5,6-dihydroimidazo[2,1-b]thiazole monohydrobromide]	51	37.5	22	–	–
Fc1ccc2scc(C3=CSC4=NCCN34)c2c1 [Example 7, 3-(5-fluorobenzo[b]thiophen-3-yl)-5,6-dihydroimidazo[2,1-b]thiazole monohydrobromide]	5.4	–	36	–	66
N#Cc1ccc2scc(C3=CSC4=NCCN34)c2c1 [Example 8, 3-(5,6-dihydroimidazo[2,1-b]thiazol-3-yl)benzo[b]thiophen-5-carbonitrile monohydrobromide]	–	467	530	–	–
